In patent EP0459561B1, “Dioxo-tetrahydroquinoline derivatives” (MERCK SHARP & DOHME LTD., priority 1990, dated 1991):

Target: AMPA receptors
Assay: Displacement of 3H-AMPA binding, rat forebrain membranes
Conditions: read-out: IC₅₀ (displacement of ³H-AMPA binding)
Description: The ability of test compounds to displace ³H-AMPA binding to rat forebrain membranes was determined by the method of Honore et al., Neurosci. Lett., 1985, 54, 27.

## CCOC(=O)C1C(=O)Nc2cc([N+](=O)[O-])c([N+](=O)[O-])cc2C1=O (stereo not shown) [Example 50, Ethyl 6,7-Dinitro-2,4-dioxo-3-(1,2,3,4-tetrahydroquinoline)carboxylate]
  IC50: < 50 µM
